Measurements published in patent US20250296960A1, “PEPTIDE COMPOSITIONS AND METHODS OF USE THEREOF” (priority 2022, published 2025).
Read-outs that look alike come from different tables or passages of the source. Numbered stars: 1 amine (or outer) side, 2 acyl side, 3 side chain; on linkers, the order of the positions; unused ones are H or OH. Square brackets hold non-standard residues; d marks the D form. Side chains are listed from the residue outwards. Ends that are not written are not given here. Peptide text beside a SMILES is read from it. * marks the point of attachment. C18 = C18 fatty acid (C16-C22 fatty acids conjugated via γGlu/8-amino-3,6-dioxaoctanoic acid spacers); Biotin = O=C1N[C@H]2[C@H](CS[C@H]2CCCCC(=O)*)N1; C18 diacid = O=C(O)CCCCCCCCCCCCCCCCC(=O)*; γGlu = O=C(O)[C@H](CCC(=O)[*:2])N[*:1]; AEEA = NCCOCCOCC(=O)O; Aib = CC(C)(N)C(=O)O

How the values were obtained:
[1] = Body weight loss in normal C57BL/6 mice, subcutaneous dosing; format: in vivo; details: normal mice; 20 nmol/kg QD; Weight loss at 48 hr
[2] = In vivo efficacy in mAMLN (NASH) mice, 2 weeks; details: for blood glucose, in words / body weight, in words: 20 nmol/kg s.c. Q2D, 2 weeks; for hepatic triglyceride content, in words / liver weight, in words / mRNA levels of TGF-β1 (inflammation marker) and ACTA2 (fibrosis marker), in words: end of treatment
[3] = Intestinal absorption / PK after intraduodenal administration of oral formulation in rats, serum LC-MS/MS; details: rat, in vivo, 300 nmol/kg
Experimental: This study was conducted to evaluate the intestinal absorption of peptides following enteral administration of oral pharmaceutical formulations. The pharmaceutical formulation was administered in a form of suspensions by intraduodenal (ID) injection in rats. SEQ ID_87, 89 and 90 was accurately weighed and dissolved in 10 mM PBS containing polysorbate 80 (pH 7.4, vehicle I). The mixture was vortexed for 5 min to get a clear solution. Then, 2.5 mL of vehicle was added to the mixture and vortexed for 30 min to get homogenous opaque suspension. The composition of Vehicle II was sodium chenodeoxycholate, and propyl gallate in polysorbate 80 in PBS. The animals were not fasted prior to dosing. 0.2˜ 0.4 mL of whole blood was taken from vein at each time point (0, 0.167, 0.5, 1, 2, 4, 8, 24, and 48 hrs after IV or ID administration). The collected whole blood was incubated at room temperature for 20 min and tubes were centrifugated at 13,000 rpm for 10 min at 4° C. The resulting serum 0.1˜ 0.2 mL was transferred into the tube and stored at −70° C. until analysis. The concentrations of peptides in serum were determined by LC-MS/MS analysis. PK parameters were analyzed by non-compartmental analysis using Phoenix WinNonlin 5.0.1. software (Pharsight Corporation, Mountain View, CA, USA).

YAibQGT FTSDY SK*YLD YMMARDFVQWLIEGGPSSGAPPPS (Y[Aib]QGTFTSDYSK([AEEA-AEEA-γGlu-C18])YLDYMMARDFVQWLIEGGPSSGAPPPS-NH2) [5-1D, K* = lysine lipidated with 2OEG-γGlu-C18]
Weight loss (%) [1]: 16.7 ± 1.3% | blood glucose, in words [2]: reduce blood glucose | body weight, in words [2]: reduce body weight | hepatic triglyceride content, in words [2]: reduce hepatic triglyceride content | liver weight, in words [2]: reduce liver weight | mRNA levels of TGF-β1 (inflammation marker) and ACTA2 (fibrosis marker), in words [2]: reduce both TGF-β1 and ACTA2

YAibQGT FTSDY SK*LLD YMMQRDFVQWLLEGGPSSGAPPPS (Y[Aib]QGTFTSDYSK([AEEA-AEEA-γGlu-C18])LLDYMMQRDFVQWLLEGGPSSGAPPPS-NH2) [5-3D, K* = lysine lipidated with 2OEG-γGlu-C18]
Weight loss (%) [1]: 7.6 ± 1.3% | blood glucose, in words [2]: reduce blood glucose | body weight, in words [2]: reduce body weight | hepatic triglyceride content, in words [2]: reduce hepatic triglyceride content | liver weight, in words [2]: reduce liver weight | mRNA levels of TGF-β1 (inflammation marker) and ACTA2 (fibrosis marker), in words [2]: reduce both TGF-β1 and ACTA2

CSCC[C@H](NC(=O)[C@H](Cc1ccc(O)cc1)NC(=O)[C@H](CC(=O)O)NC(=O)[C@H](CC(C)C)NC(=O)[C@H](CC(C)C)NC(=O)[C@H](CCCCNC(=O)COCCOCCNC(=O)COCCOCCNC(=O)CC[C@H](NC(=O)CCCCCCCCCCCCCCCCC(=O)O)C(=O)O)NC(=O)[C@H](CO)NC(=O)[C@H](Cc1ccc(O)cc1)NC(=O)[C@H](CC(=O)O)NC(=O)[C@H](CO)NC(=O)[C@@H](NC(=O)[C@H](Cc1ccccc1)NC(=O)[C@@H](NC(=O)CNC(=O)[C@H](CCC(N)=O)NC(=O)C(C)(C)NC(=O)[C@@H](N)Cc1ccc(O)cc1)[C@@H](C)O)[C@@H](C)O)C(=O)N[C@@H](CCSC)C(=O)N[C@@H](CCC(N)=O)C(=O)N[C@@H](CCCNC(=N)N)C(=O)N[C@@H](CC(=O)O)C(=O)N[C@@H](Cc1ccccc1)C(=O)N[C@H](C(=O)N[C@@H](CCC(N)=O)C(=O)N[C@@H](Cc1c[nH]c2ccccc12)C(=O)N[C@@H](CC(C)C)C(=O)N[C@@H](CC(C)C)C(=O)N[C@@H](CCC(=O)O)C(=O)NCC(=O)NCC(=O)N1CCC[C@H]1C(=O)N[C@@H](CO)C(=O)N[C@@H](CO)C(=O)NCC(=O)N[C@@H](C)C(=O)N1CCC[C@H]1C(=O)N1CCC[C@H]1C(=O)N1CCC[C@H]1C(=O)N[C@@H](CO)C(=O)N[C@@H](CCCCNC(=O)CCCC[C@@H]1SC[C@@H]2NC(=O)N[C@@H]21)C(N)=O)C(C)C [SEQ ID_90] (H-Y[Aib]QGTFTSDYSK([AEEA-AEEA-γGlu-C18 diacid])LLDYMMQRDFVQWLLEGGPSSGAPPPSK(Biotin)-NH2; N-terminus and C-terminus assumed)
AUC(0-inf) [3]: 2490 ng·h/mL | Cmax [3]: 282 ± 88.5 ng/mL | MRT inf [3]: 11.8 ± 1.48 h | Tmax [3]: 0.3 ± 0.18 h | half-life [3]: 8.37 ± 0.92 h

CSCC[C@H](NC(=O)[C@H](Cc1ccc(O)cc1)NC(=O)[C@H](CC(=O)O)NC(=O)[C@H](CC(C)C)NC(=O)[C@H](CC(C)C)NC(=O)[C@H](CCCCNC(=O)COCCOCCNC(=O)COCCOCCNC(=O)CC[C@H](NC(=O)CCCCCCCCCCCCCCCCC(=O)O)C(=O)O)NC(=O)[C@H](CO)NC(=O)[C@H](Cc1ccc(O)cc1)NC(=O)[C@H](CC(=O)O)NC(=O)[C@H](CO)NC(=O)[C@@H](NC(=O)[C@H](Cc1ccccc1)NC(=O)[C@@H](NC(=O)CNC(=O)[C@H](CCC(N)=O)NC(=O)C(C)(C)NC(=O)[C@@H](N)Cc1ccc(O)cc1)[C@@H](C)O)[C@@H](C)O)C(=O)N[C@@H](CCSC)C(=O)N[C@@H](CCC(N)=O)C(=O)N[C@@H](CCCNC(=N)N)C(=O)N[C@@H](CC(=O)O)C(=O)N[C@@H](Cc1ccccc1)C(=O)N[C@H](C(=O)N[C@@H](CCCCNC(=O)CCCC[C@@H]1SC[C@@H]2NC(=O)N[C@@H]21)C(=O)N[C@@H](Cc1c[nH]c2ccccc12)C(=O)N[C@@H](CC(C)C)C(=O)N[C@@H](CC(C)C)C(=O)N[C@@H](CCC(=O)O)C(=O)NCC(=O)NCC(=O)N1CCC[C@H]1C(=O)N[C@@H](CO)C(=O)N[C@@H](CO)C(=O)NCC(=O)N[C@@H](C)C(=O)N1CCC[C@H]1C(=O)N1CCC[C@H]1C(=O)N1CCC[C@H]1C(=O)N[C@@H](CO)C(N)=O)C(C)C [SEQ ID_89] (H-Y[Aib]QGTFTSDYSK([AEEA-AEEA-γGlu-C18 diacid])LLDYMMQRDFVK(Biotin)WLLEGGPSSGAPPPS-NH2; N-terminus and C-terminus assumed)
AUC(0-inf) ([3]; rats, single intraduodenal administration, oral formulation suspension, serum, mean ± SD, read-out: AUCinf): 2790 ng·h/mL | Cmax ([3]; rats, single intraduodenal administration, oral formulation suspension, serum, mean ± SD, read-out: Cmax): 332 ± 124 ng/mL | MRT inf ([3]; rats, single intraduodenal administration, oral formulation suspension, serum, mean ± SD, read-out: MRTinf): 9.89 ± 3.91 h | Tmax ([3]; rats, single intraduodenal administration, oral formulation suspension, serum, mean ± SD, read-out: Tmax): 0.43 ± 0.15 h | half-life ([3]; rats, single intraduodenal administration, oral formulation suspension, serum, mean ± SD, read-out: t1/2 (converted)): 7.24 ± 2.05 h

CSCC[C@H](NC(=O)[C@H](CCCCNC(=O)CCCC[C@@H]1SC[C@@H]2NC(=O)N[C@@H]21)NC(=O)[C@H](Cc1ccc(O)cc1)NC(=O)[C@H](CC(=O)O)NC(=O)[C@H](CC(C)C)NC(=O)[C@H](CC(C)C)NC(=O)[C@H](CCCCNC(=O)COCCOCCNC(=O)COCCOCCNC(=O)CC[C@H](NC(=O)CCCCCCCCCCCCCCCCC(=O)O)C(=O)O)NC(=O)[C@H](CO)NC(=O)[C@H](Cc1ccc(O)cc1)NC(=O)[C@H](CC(=O)O)NC(=O)[C@H](CO)NC(=O)[C@@H](NC(=O)[C@H](Cc1ccccc1)NC(=O)[C@@H](NC(=O)CNC(=O)[C@H](CCC(N)=O)NC(=O)C(C)(C)NC(=O)[C@@H](N)Cc1ccc(O)cc1)[C@@H](C)O)[C@@H](C)O)C(=O)N[C@@H](CCC(N)=O)C(=O)N[C@@H](CCCNC(=N)N)C(=O)N[C@@H](CC(=O)O)C(=O)N[C@@H](Cc1ccccc1)C(=O)N[C@H](C(=O)N[C@@H](CCC(N)=O)C(=O)N[C@@H](Cc1c[nH]c2ccccc12)C(=O)N[C@@H](CC(C)C)C(=O)N[C@@H](CC(C)C)C(=O)N[C@@H](CCC(=O)O)C(=O)NCC(=O)NCC(=O)N1CCC[C@H]1C(=O)N[C@@H](CO)C(=O)N[C@@H](CO)C(=O)NCC(=O)N[C@@H](C)C(=O)N1CCC[C@H]1C(=O)N1CCC[C@H]1C(=O)N1CCC[C@H]1C(=O)N[C@@H](CO)C(N)=O)C(C)C [SEQ ID NO. 87, YAibQGT FTSDY SK*LLD YB*MQR DFVQW LLEGG PSSGA PPPS] (H-Y[Aib]QGTFTSDYSK([AEEA-AEEA-γGlu-C18 diacid])LLDYK(Biotin)MQRDFVQWLLEGGPSSGAPPPS-NH2; N-terminus and C-terminus assumed)
AUC(0-inf) [3]: 1860 ng·h/mL | Cmax [3]: 290 ± 110 ng/mL | MRT inf [3]: 8.19 ± 1.92 h | Tmax [3]: 0.25 ± 0.17 h | half-life [3]: 6.17 ± 1.36 h

YAibQGT FTSDY SK*YLD YMMQRDFVQWLIEGGPSSGAPPPS (Y[Aib]QGTFTSDYSK([AEEA-AEEA-γGlu-C18])YLDYMMQRDFVQWLIEGGPSSGAPPPS-NH2) [5-2D, K* = lysine lipidated with 2OEG-γGlu-C18]
Weight loss (%) [1]: 16.6 ± 0.9% | blood glucose, in words [2]: reduce blood glucose | body weight, in words [2]: reduce body weight | hepatic triglyceride content, in words [2]: reduce hepatic triglyceride content | liver weight, in words [2]: reduce liver weight | mRNA levels of TGF-β1 (inflammation marker) and ACTA2 (fibrosis marker), in words [2]: reduce both TGF-β1 and ACTA2

HAibQGT FTSDY SK*YLD YMMARDFVQWLIEGGPSSGAPPPS (H[Aib]QGTFTSDYSK([AEEA-AEEA-γGlu-C18])YLDYMMARDFVQWLIEGGPSSGAPPPS-NH2) [5D, K* = lysine lipidated with 2OEG-γGlu-C18]
Weight loss (%) [1]: 19.4 ± 2.2% | blood glucose, in words [2]: reduce blood glucose | body weight, in words [2]: reduce body weight | hepatic triglyceride content, in words [2]: reduce hepatic triglyceride content | liver weight, in words [2]: reduce liver weight | mRNA levels of TGF-β1 (inflammation marker) and ACTA2 (fibrosis marker), in words [2]: reduce both TGF-β1 and ACTA2
